This is an account of results in ChEMBL document CHEMBL1137902, “N-Sulfonyl homoserine lactones as antagonists of bacterial quorum sensing” (Bioorg Med Chem Lett, 2004).

This test concerns Aliivibrio fischeri. The test is described as follows: Tested for the ability to interfere with the induction of luminescence by N-3-oxohexanoyl-L-homoserine lactone in the Vibrio fischeri QS system. The test is classed as functional, organism-based.
`O=C1OCCC1NS(=O)(=O)CCCc1ccccc1` (centres undefined): the IC50 (usually the concentration that gives 50% inhibition) stood at 20 µM.
Under `CCCCCCS(=O)(=O)NC1CCOC1=O` (centres undefined) stands 6.5 µM; under `CCCCS(=O)(=O)NC1CCOC1=O` (centres undefined), 12 µM.
The same measure for `O=C1OCCC1NS(=O)(=O)CCc1ccccc1` (centres undefined): 3 µM; for `CCCCCCCCS(=O)(=O)NC1CCOC1=O` (centres undefined): 10 µM; for `CCCCCCCS(=O)(=O)NC1CCOC1=O` (centres undefined): 9 µM.
Take `O=C(CC(=O)NC1CCOC1=O)Cc1ccccc1` (centres undefined): the IC50 turned out to be 2 µM.
The same measure for `O=C(CCCc1ccccc1)NC1CCOC1=O` (centres undefined): 2 µM; for `CCCCCS(=O)(=O)NC1CCOC1=O` (centres undefined): 2 µM.
